Experimental data published in ChEMBL document CHEMBL5038633 (J Med Chem, 2022).
Where a SMILES comes first, the peptide text is derived from it. Bridges are numbered along the chain shown (N, C = ends). [ ]: non-standard residue; d: D form. Trp(5-Br) = N[C@@H](Cc1c[nH]c2ccc(Br)cc12)C(=O)O; Abu(4,4,4-F3) = N[C@@H](CC(F)(F)F)C(=O)O; Phe(3-Cl) = N[C@@H](Cc1cccc(Cl)c1)C(=O)O; Cha = N[C@@H](CC1CCCCC1)C(=O)O; Chg = N[C@H](C(=O)O)C1CCCCC1

Key:
[1] = target: Sodium channel protein type 9 subunit alpha (Homo sapiens, UniProt Q15858); assay: Inhibition of human Nav1.7 stably expressed in cells with train pulses to -20 mV at 0.1 Hz and holding potential of -95 mV by Qube-automated patch clamp assay; format: cell-based
Chain of Sodium channel protein type 9 subunit alpha (Q15858 whole entry): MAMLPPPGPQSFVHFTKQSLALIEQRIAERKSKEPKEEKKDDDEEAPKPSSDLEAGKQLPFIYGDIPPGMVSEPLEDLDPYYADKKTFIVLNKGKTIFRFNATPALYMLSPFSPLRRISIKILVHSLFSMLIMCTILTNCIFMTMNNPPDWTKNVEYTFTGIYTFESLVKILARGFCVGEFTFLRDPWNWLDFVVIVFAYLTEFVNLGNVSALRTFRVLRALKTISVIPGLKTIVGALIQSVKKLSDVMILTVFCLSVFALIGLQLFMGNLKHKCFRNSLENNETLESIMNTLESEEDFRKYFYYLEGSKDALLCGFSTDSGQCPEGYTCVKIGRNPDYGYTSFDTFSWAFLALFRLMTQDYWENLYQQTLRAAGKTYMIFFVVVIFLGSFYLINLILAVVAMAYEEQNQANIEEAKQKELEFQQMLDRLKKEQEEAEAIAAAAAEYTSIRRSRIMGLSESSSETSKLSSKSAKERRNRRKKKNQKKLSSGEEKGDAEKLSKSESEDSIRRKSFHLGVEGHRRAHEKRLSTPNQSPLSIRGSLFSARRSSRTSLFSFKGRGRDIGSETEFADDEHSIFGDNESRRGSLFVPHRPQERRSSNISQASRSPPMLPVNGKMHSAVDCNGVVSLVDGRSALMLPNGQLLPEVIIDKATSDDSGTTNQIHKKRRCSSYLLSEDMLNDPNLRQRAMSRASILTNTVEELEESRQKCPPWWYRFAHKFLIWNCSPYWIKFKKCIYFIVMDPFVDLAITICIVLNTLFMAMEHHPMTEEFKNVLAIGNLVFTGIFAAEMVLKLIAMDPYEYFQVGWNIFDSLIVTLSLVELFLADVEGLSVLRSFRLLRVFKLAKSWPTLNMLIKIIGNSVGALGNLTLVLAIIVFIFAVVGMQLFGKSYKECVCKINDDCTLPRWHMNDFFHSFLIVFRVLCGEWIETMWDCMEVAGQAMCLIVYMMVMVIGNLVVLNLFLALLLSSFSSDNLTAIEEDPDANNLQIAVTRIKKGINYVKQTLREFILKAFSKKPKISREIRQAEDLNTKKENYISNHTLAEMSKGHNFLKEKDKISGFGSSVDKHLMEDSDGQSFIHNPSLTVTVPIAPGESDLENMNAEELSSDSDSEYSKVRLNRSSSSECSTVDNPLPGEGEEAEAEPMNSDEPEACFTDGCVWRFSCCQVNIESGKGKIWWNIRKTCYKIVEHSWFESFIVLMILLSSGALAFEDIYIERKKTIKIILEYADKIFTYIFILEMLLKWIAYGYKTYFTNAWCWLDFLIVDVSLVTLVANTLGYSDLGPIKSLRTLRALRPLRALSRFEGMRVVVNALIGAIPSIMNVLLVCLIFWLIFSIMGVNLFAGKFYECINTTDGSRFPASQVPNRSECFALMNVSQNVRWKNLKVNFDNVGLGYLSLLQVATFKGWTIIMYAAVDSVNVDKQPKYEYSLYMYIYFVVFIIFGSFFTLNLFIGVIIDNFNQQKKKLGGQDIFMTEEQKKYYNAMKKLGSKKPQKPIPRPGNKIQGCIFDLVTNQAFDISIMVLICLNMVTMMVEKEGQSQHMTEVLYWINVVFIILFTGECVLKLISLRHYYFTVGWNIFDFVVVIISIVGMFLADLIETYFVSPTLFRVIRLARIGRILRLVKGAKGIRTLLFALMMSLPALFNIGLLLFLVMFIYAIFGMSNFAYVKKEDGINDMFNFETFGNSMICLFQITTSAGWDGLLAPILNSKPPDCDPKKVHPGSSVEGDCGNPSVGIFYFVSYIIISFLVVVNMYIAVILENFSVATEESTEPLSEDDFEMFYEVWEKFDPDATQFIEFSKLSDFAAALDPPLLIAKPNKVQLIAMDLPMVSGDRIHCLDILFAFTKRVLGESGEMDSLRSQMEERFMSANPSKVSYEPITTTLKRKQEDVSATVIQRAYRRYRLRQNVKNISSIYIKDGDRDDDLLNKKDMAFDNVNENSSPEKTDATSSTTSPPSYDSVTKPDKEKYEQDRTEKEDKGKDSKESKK

[2] = target: Sodium channel protein type 8 subunit alpha (Homo sapiens, UniProt Q9UQD0); assay: Inhibition of human Nav1.6 stably expressed in cells with train pulses to -20 mV at 0.1 Hz and holding potential of -85 mV by whole-cell Qube-automated patch clamp assay; format: cell-based
[3] = target: Sodium channel protein type 4 subunit alpha (Homo sapiens, UniProt P35499); assay: Inhibition of human Nav1.4 stably expressed in cells with train pulses to -20 mV at 0.1 Hz and holding potential of -95 mV by whole-cell Qube-automated patch clamp assay; format: cell-based
Chain of Sodium channel protein type 4 subunit alpha (P35499 whole entry): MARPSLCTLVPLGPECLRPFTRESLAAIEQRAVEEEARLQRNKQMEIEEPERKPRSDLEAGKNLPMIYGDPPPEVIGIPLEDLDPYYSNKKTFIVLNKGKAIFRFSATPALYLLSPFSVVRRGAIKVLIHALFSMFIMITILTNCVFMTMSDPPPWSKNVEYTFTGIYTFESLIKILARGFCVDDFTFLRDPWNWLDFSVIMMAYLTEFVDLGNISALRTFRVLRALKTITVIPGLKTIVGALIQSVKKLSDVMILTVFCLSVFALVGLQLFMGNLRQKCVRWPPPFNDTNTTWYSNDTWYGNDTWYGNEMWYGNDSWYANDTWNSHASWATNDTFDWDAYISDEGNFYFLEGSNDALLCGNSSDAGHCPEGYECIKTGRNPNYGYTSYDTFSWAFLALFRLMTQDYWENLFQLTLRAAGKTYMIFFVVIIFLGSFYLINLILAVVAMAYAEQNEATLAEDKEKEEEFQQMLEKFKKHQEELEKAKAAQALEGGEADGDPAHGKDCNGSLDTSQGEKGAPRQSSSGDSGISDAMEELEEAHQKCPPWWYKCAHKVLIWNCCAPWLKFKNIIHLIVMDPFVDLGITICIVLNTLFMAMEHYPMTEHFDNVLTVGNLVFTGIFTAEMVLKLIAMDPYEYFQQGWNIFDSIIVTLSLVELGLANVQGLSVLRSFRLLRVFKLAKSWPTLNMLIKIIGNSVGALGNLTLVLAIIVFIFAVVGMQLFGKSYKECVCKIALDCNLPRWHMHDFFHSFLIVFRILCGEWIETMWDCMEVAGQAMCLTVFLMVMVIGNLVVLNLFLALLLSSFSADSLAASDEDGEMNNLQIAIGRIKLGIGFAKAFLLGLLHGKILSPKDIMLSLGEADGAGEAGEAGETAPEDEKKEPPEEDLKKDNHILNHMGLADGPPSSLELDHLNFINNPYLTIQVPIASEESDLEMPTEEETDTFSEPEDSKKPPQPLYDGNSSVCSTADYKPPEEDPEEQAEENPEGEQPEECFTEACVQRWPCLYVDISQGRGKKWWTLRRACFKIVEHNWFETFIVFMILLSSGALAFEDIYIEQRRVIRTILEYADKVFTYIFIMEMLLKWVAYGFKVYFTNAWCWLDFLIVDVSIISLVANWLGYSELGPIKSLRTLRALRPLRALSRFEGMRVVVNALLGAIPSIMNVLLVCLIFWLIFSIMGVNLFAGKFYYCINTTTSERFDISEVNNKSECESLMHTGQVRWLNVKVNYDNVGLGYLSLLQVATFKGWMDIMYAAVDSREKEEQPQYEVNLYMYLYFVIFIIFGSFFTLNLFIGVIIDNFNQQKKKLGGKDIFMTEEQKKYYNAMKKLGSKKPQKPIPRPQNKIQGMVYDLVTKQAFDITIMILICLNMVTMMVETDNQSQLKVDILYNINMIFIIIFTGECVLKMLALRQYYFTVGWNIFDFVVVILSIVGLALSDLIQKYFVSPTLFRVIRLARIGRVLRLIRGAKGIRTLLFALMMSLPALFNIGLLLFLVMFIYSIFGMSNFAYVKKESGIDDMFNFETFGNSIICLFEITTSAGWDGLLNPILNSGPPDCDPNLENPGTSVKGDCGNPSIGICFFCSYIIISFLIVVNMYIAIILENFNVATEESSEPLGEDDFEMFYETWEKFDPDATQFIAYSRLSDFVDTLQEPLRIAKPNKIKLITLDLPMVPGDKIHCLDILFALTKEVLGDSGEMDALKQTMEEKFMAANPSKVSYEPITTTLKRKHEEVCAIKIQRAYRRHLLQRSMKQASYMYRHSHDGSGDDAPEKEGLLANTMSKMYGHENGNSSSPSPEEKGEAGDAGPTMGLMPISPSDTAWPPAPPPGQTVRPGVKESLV

[4] = Inhibition of mast cell degranulation in Wistar Han rat peritoneal lavage mast cells assessed as inhibition histamine release by measuring lowest concentration at which histamine release observed measured after 30 mins; format: functional; settings: 0.5 h

SMILES	IC50 [1] [nM]	IC50 [2] [nM]	IC50 [3] [nM]	LED [4] [µM]
CC(=O)N[C@H]1CSSC[C@@H]2NC(=O)[C@@H]3CSSC[C@@H](C(=O)N[C@@H](CCCCN)C(=O)N[C@@H](CCCCN)C(=O)N[C@@H](CCCCN)C(=O)N[C@@H](CC(C)C)C(=O)N[C@@H](Cc4c[nH]c5ccccc45)C(N)=O)NC(=O)[C@H](Cc4c[nH]c5ccccc45)NC(=O)[C@H](C4CCCCC4)NC(=O)[C@H](CCCCN)NC(=O)[C@H](CSSC[C@H](NC(=O)[C@@H]4CCCN4C(=O)[C@H](CCC(=O)O)NC(=O)[C@H](CC(F)(F)F)NC(=O)[C@H](Cc4cccc(Cl)c4)NC(=O)[C@H](CCCCN)NC(=O)[C@H](CCC(N)=O)NC1=O)C(=O)N[C@@H](CC(=O)O)C(=O)N[C@@H](CO)C(=O)N[C@@H](CCC(=O)O)C(=O)N[C@@H](CCCNC(=N)N)C(=O)N[C@@H](CCCCN)C(=O)N3)NC(=O)[C@H](CCC(=O)O)NC(=O)[C@H](CC(C)C)NC(=O)CNC(=O)[C@H](CCC(=O)O)NC2=O (Ac-CQK[Phe(3-Cl)][Abu(4,4,4-F3)]EPCDSERKCCEGLECK[Chg]WCKKKLW-NH2; disulfide 1-15, 8-20, 14-24)	64	> 17000	> 17000	33
CC(=O)N[C@H]1CSSC[C@@H]2NC(=O)[C@@H]3CSSC[C@@H](C(=O)N[C@@H](CCCCN)C(=O)N[C@@H](CCCCN)C(=O)N[C@@H](CCCCN)C(=O)N[C@@H](CC(C)C)C(=O)N[C@@H](Cc4c[nH]c5ccccc45)C(N)=O)NC(=O)[C@H](Cc4c[nH]c5ccccc45)NC(=O)[C@H](CC(C)C)NC(=O)[C@H](CCCNC(=N)N)NC(=O)[C@H](CSSC[C@H](NC(=O)[C@@H]4CCCN4C(=O)[C@H](C)NC(=O)[C@H](CC(C)C)NC(=O)[C@H](Cc4ccccc4)NC(=O)[C@H](CCCCN)NC(=O)[C@H](CCC(N)=O)NC1=O)C(=O)N[C@@H](CC(=O)O)C(=O)N[C@@H](CO)C(=O)N[C@@H](CCC(=O)O)C(=O)N[C@@H](CCCNC(=N)N)C(=O)N[C@@H](CCCCN)C(=O)N3)NC(=O)[C@H](CCC(=O)O)NC(=O)[C@H](CC(C)C)NC(=O)CNC(=O)[C@H](CCC(=O)O)NC2=O (Ac-CQKFLAPCDSERKCCEGLECRLWCKKKLW-NH2; disulfide 1-15, 8-20, 14-24)	42	> 17000	> 17000	3.3
CC(=O)N[C@H]1CSSC[C@@H]2NC(=O)[C@@H]3CSSC[C@@H](C(=O)N[C@@H](CCCCN)C(=O)N[C@@H](CCCCN)C(=O)N[C@@H](CCCCN)C(=O)N[C@@H](CC(C)C)C(=O)N[C@@H](Cc4c[nH]c5ccccc45)C(N)=O)NC(=O)[C@H](Cc4c[nH]c5ccccc45)NC(=O)[C@H](C4CCCCC4)NC(=O)[C@H](CCCCN)NC(=O)[C@H](CSSC[C@H](NC(=O)[C@@H]4CCCN4C(=O)[C@H](CCC(=O)O)NC(=O)[C@H](CC(F)(F)F)NC(=O)[C@H](Cc4c[nH]c5ccc(Br)cc45)NC(=O)[C@H](CCCCN)NC(=O)[C@H](CCC(N)=O)NC1=O)C(=O)N[C@@H](CC(=O)O)C(=O)N[C@@H](CO)C(=O)N[C@@H](CCC(=O)O)C(=O)N[C@@H](CCCNC(=N)N)C(=O)N[C@@H](CCCCN)C(=O)N3)NC(=O)[C@H](CCC(=O)O)NC(=O)[C@H](CC(C)C)NC(=O)CNC(=O)[C@H](CCC(=O)O)NC2=O (Ac-CQK[Trp(5-Br)][Abu(4,4,4-F3)]EPCDSERKCCEGLECK[Chg]WCKKKLW-NH2; disulfide 1-15, 8-20, 14-24)	30	2610	> 17000	3.3
CC(=O)N[C@H]1CSSC[C@@H]2NC(=O)[C@@H]3CSSC[C@@H](C(=O)N[C@@H](CCCCN)C(=O)N[C@@H](CCCCN)C(=O)N[C@@H](CCCCN)C(=O)N[C@@H](CC(C)C)C(=O)N[C@@H](Cc4c[nH]c5ccccc45)C(N)=O)NC(=O)[C@H](Cc4c[nH]c5ccccc45)NC(=O)[C@H](CC(C)C)NC(=O)[C@H](CCCCN)NC(=O)[C@H](CSSC[C@H](NC(=O)[C@@H]4CCCN4C(=O)[C@H](CCC(=O)O)NC(=O)[C@H](CC(C)C)NC(=O)[C@H](Cc4ccccc4)NC(=O)[C@H](CCCCN)NC(=O)[C@H](CCC(N)=O)NC1=O)C(=O)N[C@@H](CC(=O)O)C(=O)N[C@@H](CCC(=O)O)C(=O)N[C@@H](CCC(=O)O)C(=O)N[C@@H](CCCNC(=N)N)C(=O)N[C@@H](CCCCN)C(=O)N3)NC(=O)[C@H](C(C)C)NC(=O)[C@H](CC(C)C)NC(=O)CNC(=O)[C@H](CCC(=O)O)NC2=O (Ac-CQKFLEPCDEERKCCEGLVCKLWCKKKLW-NH2; disulfide 1-15, 8-20, 14-24)	218	> 17000	> 17000	10
CC(=O)N[C@H]1CSSC[C@@H]2NC(=O)[C@@H]3CSSC[C@@H](C(=O)N[C@@H](CCCCN)C(=O)N[C@@H](CCCCN)C(=O)N[C@@H](CCCCN)C(=O)N[C@@H](CC(C)C)C(=O)N[C@@H](Cc4c[nH]c5ccccc45)C(N)=O)NC(=O)[C@H](Cc4c[nH]c5ccccc45)NC(=O)[C@H](CC(C)C)NC(=O)[C@H](CCCNC(=N)N)NC(=O)[C@H](CSSC[C@H](NC(=O)[C@@H]4CCCN4C(=O)[C@H](CCC(=O)O)NC(=O)[C@H](CC(C)C)NC(=O)[C@H](Cc4ccccc4)NC(=O)[C@H](CCCCN)NC(=O)[C@H](CCC(N)=O)NC1=O)C(=O)N[C@@H](CC(=O)O)C(=O)N[C@@H](CO)C(=O)N[C@@H](CCC(=O)O)C(=O)N[C@@H](CCCNC(=N)N)C(=O)N[C@@H](CCCCN)C(=O)N3)NC(=O)[C@H](C(C)C)NC(=O)[C@H](CC(C)C)NC(=O)CNC(=O)[C@H](CCC(=O)O)NC2=O (Ac-CQKFLEPCDSERKCCEGLVCRLWCKKKLW-NH2; disulfide 1-15, 8-20, 14-24)	43	3940	4770	3.3
CC(=O)N[C@H]1CSSC[C@@H]2NC(=O)[C@@H]3CSSC[C@@H](C(=O)N[C@@H](CCCCN)C(=O)N[C@@H](CCCCN)C(=O)N[C@@H](CCCCN)C(=O)N[C@@H](CC(C)C)C(=O)N[C@@H](Cc4c[nH]c5ccccc45)C(N)=O)NC(=O)[C@H](Cc4c[nH]c5ccccc45)NC(=O)[C@H](CC(C)C)NC(=O)[C@H](CCCCN)NC(=O)[C@H](CSSC[C@H](NC(=O)[C@@H]4CCCN4C(=O)[C@H](C)NC(=O)[C@H](CC(C)C)NC(=O)[C@H](Cc4ccccc4)NC(=O)[C@H](CCCCN)NC(=O)[C@H](CCC(N)=O)NC1=O)C(=O)N[C@@H](CC(=O)O)C(=O)N[C@@H](CO)C(=O)N[C@@H](CCC(=O)O)C(=O)N[C@@H](CCCNC(=N)N)C(=O)N[C@@H](CCCCN)C(=O)N3)NC(=O)[C@H](CCC(=O)O)NC(=O)[C@H](CC(C)C)NC(=O)CNC(=O)[C@H](CCC(=O)O)NC2=O (Ac-CQKFLAPCDSERKCCEGLECKLWCKKKLW-NH2; disulfide 1-15, 8-20, 14-24)	63	> 17000	> 17000	10
CC(=O)N[C@H]1CSSC[C@@H]2NC(=O)[C@@H]3CSSC[C@@H](C(=O)N[C@@H](CCCCN)C(=O)N[C@@H](CCCCN)C(=O)N[C@@H](CCCCN)C(=O)N[C@@H](CC(C)C)C(=O)N[C@@H](Cc4c[nH]c5ccccc45)C(N)=O)NC(=O)[C@H](Cc4c[nH]c5ccccc45)NC(=O)[C@H](CC(C)C)NC(=O)[C@H](CCCNC(=N)N)NC(=O)[C@H](CSSC[C@H](NC(=O)[C@@H]4CCCN4C(=O)[C@H](C)NC(=O)[C@H](CC(C)C)NC(=O)[C@H](Cc4ccccc4)NC(=O)[C@H](CCCCN)NC(=O)[C@H](CCC(N)=O)NC1=O)C(=O)N[C@@H](CC(=O)O)C(=O)N[C@@H](CO)C(=O)N[C@@H](CCC(=O)O)C(=O)N[C@@H](CCCNC(=N)N)C(=O)N[C@@H](CCCCN)C(=O)N3)NC(=O)[C@H](C(C)C)NC(=O)[C@H](CC(C)C)NC(=O)CNC(=O)[C@H](CCC(=O)O)NC2=O (Ac-CQKFLAPCDSERKCCEGLVCRLWCKKKLW-NH2; disulfide 1-15, 8-20, 14-24)	20	1230	1240	3.3
CC(=O)N[C@H]1CSSC[C@@H]2NC(=O)[C@@H]3CSSC[C@@H](C(=O)N[C@@H](CCCCN)C(=O)N[C@@H](CCCCN)C(=O)N[C@@H](CCCCN)C(=O)N[C@@H](CC(C)C)C(=O)N[C@@H](Cc4c[nH]c5ccccc45)C(N)=O)NC(=O)[C@H](Cc4c[nH]c5ccccc45)NC(=O)[C@H](CC(C)C)NC(=O)[C@H](CCCNC(=N)N)NC(=O)[C@H](CSSC[C@H](NC(=O)[C@@H]4CCCN4C(=O)[C@H](CCCCN)NC(=O)[C@H](CC(C)C)NC(=O)[C@H](Cc4ccccc4)NC(=O)[C@H](CCC(=O)O)NC(=O)[C@H](CCC(N)=O)NC1=O)C(=O)N[C@@H](CC(=O)O)C(=O)N[C@@H](CO)C(=O)N[C@@H](CCC(=O)O)C(=O)N[C@@H](CCCNC(=N)N)C(=O)N[C@@H](CCCCN)C(=O)N3)NC(=O)[C@H](CCC(=O)O)NC(=O)[C@H](CC(C)C)NC(=O)CNC(=O)[C@H](CCC(=O)O)NC2=O (Ac-CQEFLKPCDSERKCCEGLECRLWCKKKLW-NH2; disulfide 1-15, 8-20, 14-24)	91	> 17000	> 17000	3.3
CC(=O)N[C@H]1CSSC[C@@H]2NC(=O)[C@@H]3CSSC[C@@H](C(=O)N[C@@H](CCCCN)C(=O)N[C@@H](CCCCN)C(=O)N[C@@H](CCCCN)C(=O)N[C@@H](CC(C)C)C(=O)N[C@@H](Cc4c[nH]c5ccccc45)C(N)=O)NC(=O)[C@H](Cc4c[nH]c5ccccc45)NC(=O)[C@H](CC4CCCCC4)NC(=O)[C@H](CCCCN)NC(=O)[C@H](CSSC[C@H](NC(=O)[C@@H]4CCCN4C(=O)[C@H](CCC(=O)O)NC(=O)[C@H](CC(F)(F)F)NC(=O)[C@H](CC4CCCCC4)NC(=O)[C@H](CCCCN)NC(=O)[C@H](CCC(N)=O)NC1=O)C(=O)N[C@@H](CC(=O)O)C(=O)N[C@@H](CO)C(=O)N[C@@H](CCC(=O)O)C(=O)N[C@@H](CCCNC(=N)N)C(=O)N[C@@H](CCCCN)C(=O)N3)NC(=O)[C@H](CCC(=O)O)NC(=O)[C@H](CC(C)C)NC(=O)CNC(=O)[C@H](CCC(=O)O)NC2=O (Ac-CQK[Cha][Abu(4,4,4-F3)]EPCDSERKCCEGLECK[Cha]WCKKKLW-NH2; disulfide 1-15, 8-20, 14-24)	76	> 17000	> 17000	33
